We go through 24 compounds from patent publication US4044134A, “Fused pyrimidin-4(3H)-ones as antiallergy agents” (Pfizer Inc., priority 1976, dated 1977).

SMILES strings stand for the structures. Structures can show the parent of a compound that is named as a salt. Where two headings read alike, the source gives them in different places.

The test system of one assay is bronchi. The settings on record: in vivo; cited from earlier work.
Assay [1] concerns passive cutaneous anaphylaxis (PCA) reaction. As to the kind of experiment: passive cutaneous anaphylaxis (PCA) test, i.v. or oral administration. Type of assay: in vivo, male Charles River Wistar rats. The settings on record: Rattus norvegicus, read-out: degree (%) of protection, PCA test. Here is the method: In the PCA test, normal animals are injected intradermally (i.d.) with antibodies contained in serum obtained from actively sensitized animals. The animals are then challenged intravenously with antigen mixed with a dye such as Evans' Blue. The increased capillary-permeability caused by the antigen-antibody reaction causes the dye to leak from the site of the antibody injection. The test animals are then asphyxiated and the intensity of the reaction determined by measuring the diameter and intensity of the blue coloration on the inner surface of the animals skin. […] The ability of agents to interfere with PCA reactions is measured in male Charles River Wistar rats, 170-210 g. […] Hyperimmune antisera to hen egg albumin is prepared according to Orange, et al., J. Exptl. […] Forty-eight hours prior to antigen challenge the reaginic antisera is injected intradermally (i.d.) into the shaved skin of a normal rat's back; 5 hours before challenge the hyperimmune antisera is similarly injected; 5 hours later, at a third site, 60 mcg. histamine dihydrochloride is injected i.d. as a check for antihistaminic and unspecific types of blockage; the compounds of the instant invention or saline are then administered i.v. and immediately followed by 2.5 mg. Evan's blue dye and 5 mg. egg albumin in saline. In the case of oral administration Evan's blue dye and egg albumen are given five minutes after administration of the drug. Thirty minutes later the animals are asphyxiated using chloroform and the skin of the back removed and reversed for observation. A score is assigned each injection site equal to the product of the diameter of the site in mm. and a grade of 0.1, 0.5, 1, 2, 3 or 4 proportional to intensity of dye coloration. The scores for a given injection site are summed for each group of 8 animals and compared to the saline treated controls. The difference is expressed as percent blockade due to the compound employed. […] Disodium cromoglycate, a commerial antiallergy agent, is included for comparison. [drawing 3]

`O=c1[nH]cnc2cc3ccccc3cc12` [Benzo[g]quinazolin-4(3H)-one, reference compound]: the “bronchodilator activity” value in the assay on bronchi is on record as “active as a bronchodilator”. Moreover, the inhibition in vivo at 3 mg/kg in assay [1] (iv, I.V.) is 31%.
For `CCOC(=O)c1nc2nc3cc(OCC)c(OC)cc3cc2c(=O)[nH]1` [COOC2 H5/H/H/OCH3/OC2 H5/H, Ethyl 7-methoxy-8-ethoxypyrimido[4,5-b]quinoline-4(3H)-one-2-carboxylate], in assay [1] (iv, I.V.), the inhibition in vivo at 0.003 mg/kg is 66%, the inhibition in vivo at 0.01 mg/kg came out at 57%, the inhibition in vivo at 0.03 mg/kg amounted to 85% and the inhibition in vivo at 0.1 mg/kg was found to be 94%. Moreover, the inhibition in vivo at 3 mg/kg in assay [1] (iv, I.V.) was determined as 97%. Moreover, in assay [1] (Oral), the inhibition in vivo at 0.3 mg/kg is 31%, the inhibition in vivo at 1 mg/kg was determined as 44%, the inhibition in vivo at 3 mg/kg was found to be 52% and the inhibition in vivo at 10 mg/kg is 73%. Further, the inhibition in vivo at 30 mg/kg in assay [1] (Oral) came to 80%.
As for `CCOC(=O)c1nc2nc3cc(OCc4ccccc4)c(OC)cc3cc2c(=O)[nH]1` [COOC2 H5/H/H/OCH3/OC7 H7/H, ethyl 7-methoxy-8-benzyloxypyrimido[4,5-b]quinolin-4(3H)one-2-carboxylate], in assay [1] (iv, I.V.), the inhibition in vivo at 0.3 mg/kg stood at 23% and the inhibition in vivo at 3 mg/kg is 94%.
With `CCOC(=O)c1nc2nc3c(OC)c(OC)c(OC)cc3cc2c(=O)[nH]1` [COOC2 H5/H/H/OCH3/OCH3/OCH3], in assay [1] (iv, I.V.), the inhibition in vivo at 0.03 mg/kg turned out to be 33%, the inhibition in vivo at 0.3 mg/kg is 23% and the inhibition in vivo at 3 mg/kg was 88%. Also, the inhibition in vivo at 10 mg/kg in assay [1] (Oral) amounted to 0%.
Regarding `CCOC(=O)c1nc2nc3cc(O)c(OC)cc3cc2c(=O)[nH]1` [COOC2 H5/H/H/OCH3/OH/H, Ethyl 7-Methoxy-8-Hydroxypyrimido[4,5-b]Quinolin-4(3H)One-2-Carboxylate], in assay [1] (iv, I.V.), the inhibition in vivo at 0.003 mg/kg worked out at 0%, the inhibition in vivo at 0.3 mg/kg is 100% and the inhibition in vivo at 3 mg/kg was 100%.
`CCOC(=O)c1nc2nc3ccc(O)cc3cc2c(=O)[nH]1` [COOC2 H5/H/H/OH/H/H, ethyl 7-hydroxypyrimido [4,5-b]quinolin-4(3H)one-2-carboxylate hemitrifluoroacetate]: in assay [1] (iv, I.V.), the inhibition in vivo at 0.03 mg/kg is 21% and the inhibition in vivo at 0.3 mg/kg was 92%. Further, in assay [1] (Oral), the inhibition in vivo at 3 mg/kg is 4% and the inhibition in vivo at 10 mg/kg was 13%.
Turning to `CCOC(=O)c1nc2nc3cc(OC)c(O)cc3cc2c(=O)[nH]1` [COOC2 H5/H/H/OH/OCH3/H, Ethyl 7-Hydroxy-8-Methoxypyrimido[4,5-b]Quinolin-4(3H)One-2-Carboxylate Trifluoroacetate], the inhibition in vivo at 0.0003 mg/kg in assay [1] (iv, I.V., 0.0003 mg/kg) was 38%. In assay [1] (iv, I.V.), the inhibition in vivo at 0.003 mg/kg is 94%, the inhibition in vivo at 0.01 mg/kg was 98% and the inhibition in vivo at 0.03 mg/kg was 97%. In assay [1] (Oral), the inhibition in vivo at 30 mg/kg is 6%.
Turning to `CCOC(=O)c1nc2nc3ccc(SC)cc3cc2c(=O)[nH]1` [COOC2 H5/H/H/SCH3/H/H, Ethyl 7-Methylthiopyrimido[4,5-b]quinolin-4(3H)-One-2-Carboxylate], in assay [1] (iv, I.V.), the inhibition in vivo at 0.03 mg/kg worked out at 8%, the inhibition in vivo at 0.3 mg/kg came to 91% and the inhibition in vivo at 3 mg/kg amounted to 88%. Further, in assay [1] (Oral), the inhibition in vivo at 1 mg/kg came out at 0%, the inhibition in vivo at 3 mg/kg was 21%, the inhibition in vivo at 10 mg/kg stood at 66% and the inhibition in vivo at 30 mg/kg is 100%.
Take `CCOC(=O)c1nc2nc3ccc([S+](C)[O-])cc3cc2c(=O)[nH]1` (stereo not shown) [COOC2 H5/H/H/SOCH3/H/H, Ethyl 7-Methylsulfinylpyrimido[4,5-b]quinoline-4(3H)-One-2-Carboxylate]: in assay [1] (iv, I.V.), the inhibition in vivo at 0.03 mg/kg was 0%, the inhibition in vivo at 0.3 mg/kg is 58% and the inhibition in vivo at 3 mg/kg was found to be 100%. For the same compound, the inhibition in vivo at 30 mg/kg in assay [1] (Oral) was determined as 12%.
For `CCOC(=O)c1nc2nc3c(OC)ccc(OC)c3cc2c(=O)[nH]1` [COOC2 H5/H/OCH3/H/H/OCH3], in that order: 0%, 25%, 100% and 23%.
Regarding `COc1cc2cc3c(=O)[nH]c(C(=O)OCCO)nc3nc2cc1OC` [COOCH2 CH2 OH/H/H/OCH3/OCH3/H, 2-hydroxyethyl 7,8-Dimethoxy-pyrimidin[4,5-b]quinolin-4-(3H)-One-2-Carboxylate], in assay [1] (iv, I.V.), the inhibition in vivo at 0.03 mg/kg is 92%, the inhibition in vivo at 0.3 mg/kg was 94% and the inhibition in vivo at 3 mg/kg turned out to be 97%. Also, in assay [1] (Oral), the inhibition in vivo at 10 mg/kg stood at 65%.
For the compound `O=C(O)c1nc2cc3ccccc3cc2c(=O)[nH]1` [COOH/H/H/H/H (Formula II)], in assay [1] (iv, I.V.), the inhibition in vivo at 1 mg/kg was 14%, the inhibition in vivo at 3 mg/kg is 36% and the inhibition in vivo at 10 mg/kg came to 100%. Further, in assay [1] (Oral), the inhibition in vivo at 10 mg/kg was 33%, the inhibition in vivo at 30 mg/kg worked out at 0% and the inhibition in vivo at 100 mg/kg worked out at 9%.
As for `O=C(O)c1nc2nc3ccc(O)cc3cc2c(=O)[nH]1` [COOH/H/H/OH/H/H, 7-hydroxypyrimido[4,5-b]quinolin-4(3H)one-2-carboxylic acid], in assay [1] (iv, I.V.), the inhibition in vivo at 0.003 mg/kg worked out at 4%, the inhibition in vivo at 0.03 mg/kg came out at 91% and the inhibition in vivo at 3 mg/kg was determined as 100%.
`COc1cc2nc3nc(C(=O)O)[nH]c(=O)c3cc2cc1O` [COOH/H/H/OH/OCH3/H, 7-Hydroxy-8-Methoxypyrimido[4,5-b]Quinolin-4(3H)One-2-Carboxylic Acid]: in assay [1] (iv, I.V.), the inhibition in vivo at 0.003 mg/kg was determined as 90%, the inhibition in vivo at 0.01 mg/kg came out at 86% and the inhibition in vivo at 3 mg/kg worked out at 100%.
On to `O=C(O)c1nc2nc3ccccc3cc2c(=O)[nH]1` [COONa/H/H/H/H/H, Pyrimido[4,5-b]Quinolin-4(3H)-One-2-Carboxylic Acid Disodium Salt], for which, in assay [1] (iv, I.V.), the inhibition in vivo at 0.3 mg/kg was 68% and the inhibition in vivo at 1 mg/kg was 92%. In addition, in assay [1] (Oral), the inhibition in vivo at 10 mg/kg came out at 0% and the inhibition in vivo at 100 mg/kg was determined as 96%.
For `COc1cc2cc3c(=O)[nH]c(C(=O)O)nc3nc2cc1OC` [COONa/H/H/OCH3/OCH3/H], in assay [1] (iv, I.V.), the inhibition in vivo at 0.01 mg/kg stood at 71%, the inhibition in vivo at 0.03 mg/kg amounted to 96% and the inhibition in vivo at 0.1 mg/kg amounted to 100%. In assay [1] (Oral), the inhibition in vivo at 10 mg/kg amounted to 17%.
On to `CCOC(=O)CNC(=O)c1nc2nc3cc(OC)c(OC)cc3cc2c(=O)[nH]1` [N-carbethoxymethyl 7,8-dimethoxypyrimido-[4,5-b]quinolin-4(3H)-one-2-carboxamide], for which, in assay [1] (iv, I.V.), the inhibition in vivo at 3 mg/kg amounted to 32% and the inhibition in vivo at 30 mg/kg is 96%.
Turning to `CCOC(=O)c1nc2ncccc2c(=O)[nH]1` [OC2 H5/H/H/H (Formula III), Ethyl Pyrido[2,3-d]Pyrimidin-4(3H)-One-2-Carboxylate], the inhibition in vivo at 10 mg/kg in assay [1] (iv, I.V.) stood at 95%. In addition, in assay [1] (Oral), the inhibition in vivo at 100 mg/kg was 0%.
Consider `CN[C@@H](C)[C@H](O)c1ccccc1` [ephedrine], for which, in the assay on bronchi, the “bronchodilator activity” value is given as “orally efficacious bronchodilator”.
In the case of `CNC[C@H](O)c1ccc(O)c(O)c1` [epinephrine], the “bronchodilator activity” value in the assay with bronchi was “bronchodilator effects”.
As to `CC(C)NCC(O)c1ccc(O)c(O)c1` (stereo not shown) [isoproterenol], the “bronchodilator activity” value with bronchi is on record as “potent aerosol bronchodilator”.
As for `O=c1[nH]cnc2nc3ccccc3cc12` [pyrimido[4,5-b]quinolin-4(3H)-one, reference compound], in assay [1] (iv, I.V.), the inhibition in vivo at 3 mg/kg was 33%.
With `CC(C)(C)NCC(O)c1ccc(O)c(CO)c1` (stereo not shown) [solbutamol], the “bronchodilator activity” value in the assay with bronchi is “potent bronchodilator of prolonged duration, and active via both oral and aerosol administration”.
With `Cn1c(=O)c2[nH]cnc2n(C)c1=O` [theophylline], in the assay with bronchi, the “bronchodilator activity” value was “generally less potent than the sympathomimetic amines such as isoproterenol and solbutamol, and are ineffective in aerosol administration”.
